Experimental data taken from patent publication US20230192705A1, “SHP2 INHIBITORS, COMPOSITIONS AND USES THEREOF” (Betta Pharmaceuticals Co., Ltd, priority 2020, published 2023).

These compounds were tested against T1, SHP2 (Homo sapiens, UniProt Q06124) (assay: SHP2 allosteric inhibitor enzyme activity assay (DiFMUP fluorescence)). Details: class symbols.
T1 sequence (Q06124 1-593): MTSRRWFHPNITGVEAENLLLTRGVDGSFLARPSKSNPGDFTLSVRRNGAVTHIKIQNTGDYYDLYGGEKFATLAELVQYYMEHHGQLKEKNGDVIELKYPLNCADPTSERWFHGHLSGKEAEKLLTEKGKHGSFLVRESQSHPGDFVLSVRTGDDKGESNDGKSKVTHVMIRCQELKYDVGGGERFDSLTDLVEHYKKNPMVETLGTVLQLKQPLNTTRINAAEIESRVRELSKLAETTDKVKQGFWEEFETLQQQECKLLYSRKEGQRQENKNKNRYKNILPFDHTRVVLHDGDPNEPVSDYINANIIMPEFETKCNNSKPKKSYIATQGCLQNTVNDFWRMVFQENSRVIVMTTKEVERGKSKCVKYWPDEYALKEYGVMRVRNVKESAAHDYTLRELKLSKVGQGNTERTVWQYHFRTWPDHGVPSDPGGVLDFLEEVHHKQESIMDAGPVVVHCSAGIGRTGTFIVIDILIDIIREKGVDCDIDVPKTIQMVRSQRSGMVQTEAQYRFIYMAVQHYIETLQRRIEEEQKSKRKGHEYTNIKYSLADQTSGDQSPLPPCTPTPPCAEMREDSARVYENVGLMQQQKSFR
Type: biochemical
Procedure, shortened: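 SHP2 activated by 0.5 μM IRS1_pY1172(dPEG8)pY1222 peptide, 0.2 ng enzyme per well, 1 h at room temperature with compound (1 μM top, 3-fold series), then DiFMUP substrate 1 h. Buffer: 60 mM HEPES, 75 mM NaCl, 75 mM KCl, 0.05% BRIJ-35, 1 mM EDTA, 5 mM DTT. Fluorescence ex 340/em 450 nm; IC50 by variable-slope fit.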

| IC50 [µM] | SMILES |
| --- | --- |
| 0.02 to 0.06 | C[C@@H]1OCC2(CCN(c3nc4[nH]nc(C5(c6ccncc6)CC5)c4c(=O)[nH]3)CC2)[C@@H]1N [Example 274, 6-((3S,4S)-4-amino-3-methyl-2-oxa-8-azaspiro[4.5]decan-8-yl)-3-(1-(pyridin-4-yl)cyclopropyl)-1,5-dihydro-4H-pyrazolo[3,4-d]pyrimidin-4-one] |
| 0.02 to 0.06 | C[C@@H]1OCC2(CCN(c3nc4[nH]nc(C5(c6ccccc6F)CC5)c4c(=O)[nH]3)CC2)[C@@H]1N [Example 294, 6-((3S,4S)-4-amino-3-methyl-2-oxa-8-azaspiro[4.5]decan-8-yl)-3-(1-(2-fluorophenyl)cyclopropyl)-1,5-dihydro-4H-pyrazolo[3,4-d]pyrimidin-4-one] |
| 0.02 to 0.06 | C[C@@H]1OCC2(CCN(c3nc4[nH]nc(C5(c6ccncn6)CC5)c4c(=O)[nH]3)CC2)[C@@H]1N [Example 273, 6-((3S,4S)-4-amino-3-methyl-2-oxa-8-azaspiro[4.5]decan-8-yl)-3-(1-(pyrimidin-4-yl)cyclopropyl)-1,5-dihydro-4H-pyrazolo[3,4-d]pyrimidin-4-one] |
| 0.02 to 0.06 | C[C@@H]1OCC2(CCN(c3nc4[nH]nc(C5(c6cccc(O)c6)CC5)c4c(=O)[nH]3)CC2)[C@@H]1N [Example 310, 6-((3S,4S)-4-amino-3-methyl-2-oxa-8-azaspiro[4.5]decan-8-yl)-3-(1-(3-hydroxyphenyl)cyclopropyl)-1,5-dihydro-4H-pyrazolo[3,4-d]pyrimidin-4-one] |
| ≤ 0.02 | N[C@@H]1c2ccccc2CC12CCN(c1nc3[nH]nc(C4(c5cccnc5)CC4)c3c(=O)[nH]1)CC2 [Example 247, (S)-6-(1-amino-1,3-dihydrospiro[indene-2,4′-piperidin]-1′-yl)-3-(1-(pyridin-3-yl)cyclopropyl)-1,5-dihydro-4H-pyrazolo[3,4-d]pyrimidin-4-one] |
| 0.02 to 0.06 | C[C@@H]1OCC2(CCN(c3nc4[nH]nc(C5(c6ccc7ocnc7c6)CC5)c4c(=O)[nH]3)CC2)[C@@H]1N [Example 287, 6-((3S,4S)-4-amino-3-methyl-2-oxa-8-azaspiro[4.5]decan-8-yl)-3-(1-(benzo[d]oxazol-5-yl)cyclopropyl)-1,5-dihydro-4H-pyrazolo[3,4-d]pyrimidin-4-one] |
| ≤ 0.02 | N[C@@H]1c2ccccc2CC12CCN(c1nc3[nH]nc(C4(c5c[nH]nn5)CC4)c3c(=O)[nH]1)CC2 [Example 253, (S)-3-(1-(1H-1,2,3-triazol-4-yl)cyclopropyl)-6-(1-amino-1,3-dihydrospiro[indene-2,4′-piperidin]-1′-yl)-1,5-dihydro-4H-pyrazolo[3,4-d]pyrimidin-4-one] |
| 0.02 to 0.06 | C[C@@H]1OCC2(CCN(c3nc4[nH]nc(C5(c6cccs6)CC5)c4c(=O)[nH]3)CC2)[C@@H]1N [Example 278, 6-((3S,4S)-4-amino-3-methyl-2-oxa-8-azaspiro[4.5]decan-8-yl)-3-(1-(thiophen-2-yl)cyclopropyl)-1,5-dihydro-4H-pyrazolo[3,4-d]pyrimidin-4-one] |

Continued, compound first:

| SMILES | IC50 [µM] |
| --- | --- |
| N[C@@H]1c2ccccc2CC12CCN(c1nc3[nH]nc(C4(c5cccc6occc56)CC4)c3c(=O)[nH]1)CC2 [Example 80, (S)-6-(1-amino-1,3-dihydrospiro[indene-2,4′-piperidin]-1′-yl)-3-(1-(benzofuran-4-yl)cyclopropyl)-1,5-dihydro-4H-pyrazolo[3,4-d]pyrimidin-4-one] | ≤ 0.02 |
| CC1(C)C=C(c2n[nH]c3nc(N4CCC5(CC4)Cc4ccccc4[C@H]5N)[nH]c(=O)c23)c2cc(Br)cnc2C1 [Example 160, (S)-6-(1-amino-1,3-dihydrospiro[indene-2,4′-piperidin]-1′-yl)-3-(3-bromo-7,7-dimethyl-7,8-dihydroquinolin-5-yl)-1,5-dihydro-4H-pyrazolo[3,4-d]pyrimidin-4-one] | ≤ 0.02 |
| N[C@@H]1c2ccccc2CC12CCN(c1nc3[nH]nc(C4(c5ccccc5)CCOCC4)c3c(=O)[nH]1)CC2 [Example 100, (S)-6-(1-amino-1,3-dihydrospiro[indene-2,4′-piperidin]-1′-yl)-3-(4-phenyltetrahydro-2H-pyran-4-yl)-1,5-dihydro-4H-pyrazolo[3,4-d]pyrimidin-4-one] | 0.02 to 0.06 |
| N[C@@H]1c2ccccc2CC12CCN(c1nc3[nH]nc(C4=CCOc5cc(Cl)ccc54)c3c(=O)[nH]1)CC2 [Example 167, (S)-6-(1-amino-1,3-dihydrospiro[indene-2,4′-piperidin]-1′-yl)-3-(7-chloro-2H-chromen-4-yl)-1,5-dihydro-4H-pyrazolo[3,4-d]pyrimidin-4-one] | ≤ 0.02 |
| CC1(C)CC=C(c2n[nH]c3nc(N4CCC5(CC4)Cc4ccccc4[C@H]5N)[nH]c(=O)c23)c2ccc(C(F)(F)F)nc21 [Example 145, (S)-6-(1-amino-1,3-dihydrospiro[indene-2,4′-piperidin]-1′-yl)-3-(8,8-dimethyl-2-(trifluoromethyl)-7,8-dihydroquinolin-5-yl)-1,5-dihydro-4H-pyrazolo[3,4-d]pyrimidin-4-one] | ≤ 0.02 |
| N[C@@H]1c2ccccc2CC12CCN(c1nc3[nH]nc(C4(c5ccncc5)CC4)c3c(=O)[nH]1)CC2 [Example 219, (S)-6-(1-amino-1,3-dihydrospiro[indene-2,4′-piperidin]-1′-yl)-3-(1-(pyridin-4-yl)cyclopropyl)-1,5-dihydro-4H-pyrazolo[3,4-d]pyrimidin-4-one] | ≤ 0.02 |
| Cc1cnc(C2(c3n[nH]c4nc(N5CCC6(CC5)Cc5ccccc5[C@H]6N)[nH]c(=O)c34)CC2)o1 [Example 244, (S)-6-(1-amino-1,3-dihydrospiro[indene-2,4′-piperidin]-1′-yl)-3-(1-(5-methyloxazol-2-yl)cyclopropyl)-1,5-dihydro-4H-pyrazolo[3,4-d]pyrimidin-4-one] | ≤ 0.02 |
| N[C@@H]1c2ccccc2CC12CCN(c1nc3[nH]nc(C4(c5ccnc(-c6ccccn6)c5)CC4)c3c(=O)[nH]1)CC2 [Example 87, (S)-3-(1-([2,2′-bipyridin]-4-yl)cyclopropyl)-6-(1-amino-1,3-dihydrospiro[indene-2,4′-piperidin]-1′-yl)-1,5-dihydro-4H-pyrazolo[3,4-d]pyrimidin-4-one] | ≤ 0.02 |
| N[C@@H]1c2ccccc2CC12CCN(c1nc3[nH]nc(C4(c5ccc(Cl)nn5)CC4)c3c(=O)[nH]1)CC2 [Example 69, (S)-6-(1-amino-1,3-dihydrospiro[indene-2,4′-piperidin]-1′-yl)-3-(1-(6-chloropyridazin-3-yl)cyclopropyl)-1,5-dihydro-4H-pyrazolo[3,4-d]pyrimidin-4-one] | 0.02 to 0.06 |
| N[C@@H]1c2ccccc2CC12CCN(c1nc3[nH]nc(C4(c5ccccc5Cl)CC4)c3c(=O)[nH]1)CC2 [Example 12, (S)-6-(1-amino-1,3-dihydrospiro[indene-2,4′-piperidin]-1′-yl)-3-(1-(2-chlorophenyl)cyclopropyl)-1,5-dihydro-4H-pyrazolo[3,4-d]pyrimidin-4-one] | ≤ 0.02 |
| Cn1cc(-c2cccc(C3(c4n[nH]c5nc(N6CCC7(CC6)Cc6ccccc6[C@H]7N)[nH]c(=O)c45)CC3)c2)cn1 [Example 36, (S)-6-(1-amino-1,3-dihydrospiro[indene-2,4′-piperidin]-1′-yl)-3-(1-(3-(1-methyl-1H-pyrazol-4-yl)phenyl)cyclopropyl)-1,5-dihydro-4H-pyrazolo[3,4-d]pyrimidin-4-one] | ≤ 0.02 |
| CC1(C)C=C(c2n[nH]c3nc(N4CCC5(CC4)Cc4ccccc4[C@H]5N)[nH]c(=O)c23)c2ccccc21 [Example 176, (S)-6-(1-amino-1,3-dihydrospiro[indene-2,4′-piperidin]-1′-yl)-3-(1,1-dimethyl-1H-inden-3-yl)-1,5-dihydro-4H-pyrazolo[3,4-d]pyrimidin-4-one] | ≤ 0.02 |
| CC1(C)C=C(c2n[nH]c3nc(N4CCC5(CC4)Cc4ccccc4[C@H]5N)[nH]c(=O)c23)c2cnc(C3CC3)nc2C1 [Example 148, (S)-6-(l-amino-1,3-dihydrospiro[indene-2,4'-piperidin]-1′-yl)-3-(2-cyclopropyl-7,7-dimethyl-7,8-dihydroquinazolin-5-yl)-1,5-dihydro-4H-pyrazolo[3,4-d]pyrimidin-4-one] | 0.02 to 0.06 |
| N[C@@H]1c2ccccc2CC12CCN(c1cnc3c(C4(c5ccccc5)CC4)n[nH]c3n1)CC2 [Example 2, (S)-1′-(3-(1-phenylcyclopropyl)-1H-pyrazolo[3,4-b]pyrazin-6-yl)-1,3-dihydrospiro[indene-2,4′-piperidin]-1-amine] | ≤ 0.02 |
| N[C@@H]1c2ccccc2CC12CCN(c1nc3[nH]nc(C4(c5ccnc6ccccc56)CC4)c3c(=O)[nH]1)CC2 [Example 78, (S)-6-(1-amino-1,3-dihydrospiro[indene-2,4′-piperidin]-1′-yl)-3-(1-(quinolin-4-yl)cyclopropyl)-1,5-dihydro-4H-pyrazolo[3,4-d]pyrimidin-4-one] | ≤ 0.02 |
| CC(=O)N1CC(F)(F)c2c1cccc2C1(c2n[nH]c3nc(N4CCC5(CC4)Cc4ccccc4[C@H]5N)[nH]c(=O)c23)CC1 [Example 60, (S)-3-(1-(1-acetyl-3,3-difluoroindolin-4-yl)cyclopropyl)-6-(1-amino-1,3-dihydrospiro[indene-2,4′-piperidin]-1′-yl)-1,5-dihydro-4H-pyrazolo[3,4-d]pyrimidin-4-one] | ≤ 0.02 |
